Source: patent US8735152B2, “Methods for inducing cell death in pluripotent stem cells and differentiated cells other than cardiac myocytes” (Daiichi Sankyo Company, Limited, priority 2009, dated 2014)

Key:
Format in all cases: cell-based
[1] = test system: mouse embryonic stem cell-derived cardiomyocytes, residual undifferentiated embryonic stem cells and other cells; assay: Mannitol treatment of culture system containing both embryonic stem cell-derived cardiomyocytes and residual embryonic stem cells; conditions: 0.45 M, 36 hours
Procedure: Mouse derived embryonic stem cells were treated by the method of Example 1 to form embryoid bodies, which were differentiated to a stage containing the programmed cardiomyocytes (precardiac mesoderms). Thus obtained embryoid bodies were treated with digestive enzymes (trypsin and collagenase) meticulously to ensure that no cell damage would be caused and the resulting partially dispersed embryoid bodies were subjected to another adherent culture. Upon a 5-day continued culture, populations of cardiomyocytes pulsating autonomously (the cell populations circled by the red lines), cell populations having the traits of embryonic stem cells-like cells (the cell populations circled by the yellow lines), and other cell populations were observed together (see FIG. 2(a)). In the next step, the culture medium for the mixed culture was replaced by a serum-free α-MEM culture medium containing mannitol in 0.45 M (approximately equivalent to 720 mOsm/kg) and ITS {insulin (10 mg/L), transferrin (5.5 mg/L), and sodium selenite ([…])} (GIBCO) and culture was performed for 36 hours. […] Subsequently, the culture medium was replaced by an α-MEM culture medium supplemented with 20% fetal calf serum and culture was continued, whereupon the cardiomyocytes restored autonomous pulsation in 1 or 2 days.

[2] = test system: mouse embryonic stem cells; assay: Cell death inducing effect on mouse embryonic stem cells (TMRM, FACS); conditions: 0.45 M
Source text: The mitochondrial membrane potential is lost in dead cells, so if cells are stained with the mitochondrial membrane potential sensitive reagent TMRM (Molecular Probe) which emits fluorescence upon detecting the membrane potential which is an indicator of survival, the fluorescence signal derived from this reagent is high in live cells but low in dead cells. This feature was used in Example 3; embryonic stem cells cultured by the method of Example 1 were further cultured in an α-MEM culture medium containing 0.45 M mannitol (approximately equivalent to 720 mOsm/kg) and 1 μM TMRM for a period of 0 h (Pre), 3 h, 6 h or 20 h; the cultured embryonic stem cells were harvested, washed and subjected to FACS analysis for checking the state of their survival on the basis of the fluorescence intensity of the mitochondrial membrane potential sensitive reagent TMRM; the results are shown in FIG. 4. In FIG. 4 depicting the results of FACS analysis for 0 h (Pre), 3 h, 6 h, and 20 h, the cells lying above the border line on the dot plots diagrams are live cells and those below the border line are dead cells.

[3] = test system: marmoset embryonic stem cells; assay: Cell death inducing effect on marmoset embryonic stem cells (TMRM FACS, 5-day adherent culture); conditions: 0.45 M, 2 hours
Procedure: The marmoset embryonic stem cells were obtained from the Central Institute for Experimental Animals (Stem Cells, 2005 October; 23(9): 1304-13). The cells were cultured basically in accordance with the method described in this document. To be more specific, the marmoset embryonic stem cells were cultured to maintain their undifferentiated state using mouse embryonic fibroblasts (MEF) that had been inactivated for growth by treatment with mitomycin C. The culture medium of KO-DMEM (GIBCO), supplemented with 20% KO-SERUM (GIBCO), 1.6 mM L-glutamine, 0.1 mM non-essential amino acids (MEM), 0.2 mM β-mercaptoethanol (2-ME; Sigma), 100 IU/ml penicillin, 100 μg/ml streptomycin sulfate, and 8 ng/ml recombinant human leukemia inhibiting factor (LIF; Chemicon) or recombinant human basic fibroblast growth factor (bFGF; Peprotech) was used. Upon passaging, the cells were treated with 0.1% type III collagenase (Wortington) at 37° C. for 10 minutes to separate ES colonies. […] Thereafter, the cells treated with mannitol for 2 hours and the control cells were analyzed by FACS for the level of mitochondrial membrane potential on the basis of the fluorescent intensity of TMRM to check the state of survival of the stem cells; the results are shown in FIG. 5. […]

[4] = test system: mouse embryonic stem cells; assay: Cell death inducing effect of low-concentration mannitol on mouse embryonic stem cells (adhesion, morphology); conditions: 0.2 M
Procedure: Embryonic stem cells as cultured by the method described in Example 1 were cultured for an additional 48 or 72 hours in an α-MEM culture medium containing 0.2 M mannitol (approximately equivalent to 480 mOsm/kg); thereafter, the stem cells were checked for the state of their survival in terms of cell adhesion or non-adhesion and by morphological observation; the results are shown in FIG. 15.

[5] = test system: cardiomyocyte containing mouse embryoid bodies; assay: Low-concentration mannitol treatment of cardiomyocyte containing mouse embryoid bodies; conditions: 0.2 M, 72 hours
Procedure: Additionally, similar to the method described in Example 1, 75 mouse embryonic stem cells per EB were cultured as cell masses for a total of 7 days by the hanging-drop technique using a culture medium [α-MEM (minimum essential medium) (SIGMA), supplemented with 10% FBS (EQUITEC BIO), 100 units/ml penicillin, and 50 μg/ml streptomycin (GIBCO)], whereby the stem cells were differentiated into cell masses containing cardiomyocytes; thereafter, the embryoid bodies were adhered to the culture dish and cultured for another 3-5 days under the conditions of 37° C. and 5% CO2.

embryonic stem cells = assay: Study of mannitol concentration and duration of exposure versus cell death of embryonic stem cells; conditions: 1M (substantially saturated concentration)
Source text: The present inventors prepared hypertonic solutions containing mannitol dissolved in it at high concentrations and applied those hypertonic solutions to a mixed cell system comprising embryonic stem cells as well as cardiomyocytes and non-cardiomyocytes; they found the fact that upon exposure to the hypertonic solutions, the embryonic stem cells and non-cardiomyocytes were more likely to undergo cell death.

## OC[C@@H](O)[C@@H](O)[C@H](O)[C@H](O)CO [mannitol]
[1]; then culture in medium with 20% fetal calf serum
  State of cells other than cardiomyocytes (cell death): virtually all cells other than cardiomyocytes were found dead
[1]; immunostaining
  Nkx 2.5 positive cardiomyocytes among the obtained cells: ≥ 98%
[2]; 3-hr treatment
  Cells that had died: approximately 90%
[2]; 6-hr treatment
  Cells that had died: 98%
[2]; 20-hr treatment
  Cells that had died: all cells had been dead
[3]
  Mitochondrial membrane potential (TMRM fluorescence, FACS): almost all of the cells treated with mannitol for 2 hours had lost membrane potential
[3]; then 5 days adherent culture
  Survival after adherent culture for 5 days: none of the cells exposed to mannitol were found alive
[4]; 48 hours
  State of survival (cell adhesion, morphology): almost all colonies had already detached from the culture dish
[4]; 72 hours
  State of survival (cell adhesion, morphology): the cells were completely dead
[5]
  State of cells other than cardiomyocytes and of cardiomyocytes: almost all cells other than cardiomyocytes had died and only the cardiomyocytes survived selectively
Embryonic stem cells
  Cell death in embryonic stem cells: induced cell death in embryonic stem cells within a short period of time
